Assay results from patent publication US10993993B2, “Pharmaceutical composition for treating muscle atrophy or sarcopenia including glucagon-like peptide (GLP-1) or GLP-1 receptor agonist” (IMMUNOFORGE CO., LTD., priority 2015, dated 2021).
“Also recorded” adds a separate entry of the source. Ends that are not written are not given here.

Experiments:
[1] = test system: muscle atrophy animal model (dexamethasone); assay: Muscle mass of dexamethasone-treated mice given sitagliptin or GLP-1(32-36)amide (Example 3-1); type: in vivo, C57BL/6J male mice; settings: dexamethasone 20 mg/kg i.p.; sitagliptin 300 mg/kg oral gavage, GLP-1(32-36)amide 5 μg/kg i.p.; FIG. 7
Procedure: (§1) The present inventors treated C57BL/6J male mice (n=10/group) with dexamethasone (20 mg/kg/i.p.) to reduce muscles of the mice, and they examined effects of sitagliptin (300 mg/kg/oral gavage) and GLP-1(32-36)amide (5 μg/kg/i.p.) on the body weights and muscles of the mice.

[2] = test system: muscle atrophy animal model (dexamethasone); assay: Body weight of dexamethasone-treated mice given sitagliptin or GLP-1(32-36)amide (Example 3-1); type: in vivo, C57BL/6J male mice; settings: dexamethasone 20 mg/kg i.p.; sitagliptin 300 mg/kg oral gavage, GLP-1(32-36)amide 5 μg/kg i.p.; FIG. 6
Procedure: as §1

myostatin and MyoD = assay: Myostatin and MyoD expression in dexamethasone-treated mice given sitagliptin or GLP-1(32-36)amide (Example 3-3); type: in vivo, C57BL/6J male mice; settings: dexamethasone 20 mg/kg i.p.; sitagliptin 300 mg/kg oral gavage, GLP-1(32-36)amide 5 μg/kg i.p.; FIG. 9
Procedure: as §1, with “mice. Therefore, the present inventors examined a change in the expression level of myostatin, which is a cause of muscle atrophy, and a change in the expression level of the muscle-producing factor MyoD by sitagliptin and GLP-1(32-36)amide.” for “mice.”

[3] = test system: muscle atrophy animal model (dexamethasone); assay: Grip strength of dexamethasone-treated mice given sitagliptin or GLP-1(32-36)amide (Example 3-2); type: in vivo, C57BL/6J male mice; settings: dexamethasone 20 mg/kg i.p.; sitagliptin 300 mg/kg oral gavage, GLP-1(32-36)amide 5 μg/kg i.p.; FIG. 8
Procedure: as §1, with “mice. In detail, the grip strength when all of the paws of the mouse of Example 6 were pulled with the same force was measured by a grip strength machine.” for “mice.”

[4] = test system: dexamethasone-induced muscle atrophy or sarcopenia mice; assay: Grip strength of dexamethasone-treated mice given long-acting GLP-1(7-36) (Example 2-2); type: in vivo, male C57BL6J mice; settings: dexamethasone 20 mg/kg i.p., Trulicity 1 mg/kg s.c. two times per week, PB1023 3 mg/kg s.c. three times per week, after two weeks, FIGS. 11A and 11B
Procedure: (§2) Specifically, 10-week-old male C57BL6J mice were divided into 10 mice per group (total n=40), and saline and dexamethasone (20 mg/kg) were each intraperitoneally administered to the control and experimental groups each day. The grip strength of the mice was measured on day 9.
(§3) Subsequently, on day 11, the control mice were administered with saline three times per week by subcutaneous injection (Co-vehicle group), whereas the comparative mice were administered with either (i) saline three times per week by subcutaneous injection (Dex-vehicle group), (ii) Trulicity (SEQ ID NO: 5) two times per week by subcutaneous injection (1 mg/kg; Trulicity group), or (iii) PB1023 three times per week by subcutaneous injection (3 mg/kg; PB1023 group).
(§4) Thereafter, the grip strength was measured and a four limb hanging test was performed on day 14, and tissue sampling was performed on day 22.

[5] = test system: dexamethasone-induced muscle atrophy or sarcopenia mice; assay: Muscle mass of dexamethasone-treated mice given long-acting GLP-1(7-36) (Example 2-3); type: in vivo, male C57BL6J mice; settings: dexamethasone 20 mg/kg i.p., Trulicity 1 mg/kg, PB1023 3 mg/kg s.c.; for total muscle mass: after three weeks, vs Dex-vehicle group, FIG. 12A
Procedure: as §2, §3, §4

[6] = test system: muscle atrophy-induced mice (dexamethasone); assay: Grip strength of muscle atrophy-induced mice treated with exendin-4 (Example 1-3); type: in vivo, C57BL/6J male mice; settings: exendin-4 100 ng/mouse i.p. 12 days following dexamethasone 200 mg/kg i.p. 8 days; FIG. 3
Procedure: (§5) In detail, control mice which were not administered with dexamethasone or exendin-4, mice in which muscle atrophy was induced by intraperitoneal injection of dexamethasone (200 mg/kg) for 8 days, comparative mice which were intraperitoneally injected with exendin-4 (100 ng/mouse) for 12 days, and mice in which muscle atrophy was treated by intraperitoneal injection of exendin-4 (100 ng/mouse) for 12 days following intraperitoneal injection of dexamethasone (200 mg/kg) for 8 days were prepared. While these mice were raised for 20 days, changes in their body weights were measured (FIG. 1).
The control mice (control), dexamethasone-induced muscle atrophy mice, exendin-4-treated comparative mice, and muscle atrophy-treated mice treated with exendin-4 following treatment of dexamethasone, which were prepared in Example 1-1, were subjected to measurement of grip strength to investigate whether muscle functions were recovered (FIG. 3). In this regard, a force measured by a grip strength machine when all of the paws of a mouse were pulled with the same force was considered as the grip strength.

[7] = test system: muscle atrophy-induced mice (dexamethasone); assay: Body weight of dexamethasone-induced muscle atrophy mice treated with exendin-4 (Example 1-1); type: in vivo, C57BL/6J male mice; settings: exendin-4 100 ng/mouse i.p. 12 days following dexamethasone 200 mg/kg i.p. 8 days; vs dexamethasone alone; from day 11; FIG. 1
Procedure: It is known that muscle atrophy is caused by chronic diseases (chronic renal failure, chronic heart failure, chronic obstructive disease, etc.), and caused by administration of a high dose of a drug such as dexamethasone. Thus, animal models (C57BL/6J male mice) were treated with dexamethasone to prepare sarcopenia models. When sarcopenia occurred, effects of exendin-4 were investigated.
as §5

[8] = test system: myostatin, atrogin-1, and MuRF1 in C2C12 myocytes; assay: Expression of muscle atrophy-related genes in dexamethasone-treated C2C12 myocytes (Example 1-5); type: cell-based; settings: 20 nM exendin-4 6 hours following 1 μM dexamethasone 12 hours, FIG. 5
Procedure: A myoblast cell line C2C12 was differentiated into myocytes by culturing in a medium containing 2% (v/v) horse serum for 5 days. Control myocytes (control) prepared from the differentiated myocytes without any treatment, myocytes in which muscle atrophy symptoms were induced by treatment of 1 μM dexamethasone for 12 hours, comparative myocytes treated with 20 nM exendin-4 for 6 hours, and experimental myocytes in which muscle atrophy symptoms were treated with 20 nM exendin-4 for 6 hours following treatment of 1 μM dexamethasone for 12 hours were each prepared. Expression levels of muscle atrophy-related genes (myostatin, atrogin-1, and MuRF1) were compared in each of the myocytes (FIG. 5).

[9] = test system: muscle atrophy-induced mice (dexamethasone); assay: Skeletal muscle weights of muscle atrophy-induced mice treated with exendin-4 (Example 1-2); type: in vivo, C57BL/6J male mice; settings: exendin-4 100 ng/mouse i.p. 12 days following dexamethasone 200 mg/kg i.p. 8 days; FIG. 2
Procedure: as §5
The control mice (control), dexamethasone-induced muscle atrophy mice, exendin-4-treated comparative mice, and muscle atrophy-treated mice treated with exendin-4 following treatment of dexamethasone, which were prepared in Example 1-1, were sacrificed, and total weights of the skeletal muscles of the respective mice were measured. Quadratus muscles, gastrocnemus muscles, tibialis anterior muscles, soleus muscles, and extensor digitorum longus muscles constituting the skeletal muscles were each separated, and their weights were compared (FIG. 2).

[10] = test system: myostatin, atrogin-1, MuRF1, MyoD and myogenin genes; assay: Expression of muscle protein-destroying and -producing genes in muscle tissue, PCR (Example 1-4); type: in vivo, C57BL/6J male mice; settings: exendin-4 following dexamethasone, FIG. 4
Procedure: as §5
It is known that when muscle atrophy occurs, expression of muscle protein-destroying genes (myostatin, atrogin-1, and MuRF1) is increased and expression of muscle protein-producing genes (MyoD and myogenin) is decreased; thus, this was to be examined That is, muscle tissues were removed from the control mice (control), dexamethasone-induced muscle atrophy mice, exendin-4-treated comparative mice, and muscle atrophy-treated mice treated with exendin-4 following treatment of dexamethasone, which were prepared in Example 1-1, and total RNAs were obtained from the muscle tissues. cDNAs were synthesized therefrom, each gene was amplified from the synthesized cDNA by PCR, and changes in the expression levels thereof were compared (FIG. 4).

In the case of `N[C@@H](CC(=O)N1CCn2c(nnc2C(F)(F)F)C1)Cc1cc(F)c(F)cc1F` [sitagliptin], the muscle mass [1] is reported as “increased”, the body weight [2] is reported as “increased” and the MyoD expression (myostatin and MyoD) is reported as “increased again”. For the same compound, the myostatin expression (myostatin and MyoD) was “decreased again” and the grip strength [3] was “increased again”.
GLP-1(32-36)amide (LVKGR-NH2) was tested, and the muscle mass [1] was “increased”, the body weight [2] was “increased” and the MyoD expression (myostatin and MyoD) was “increased again”. For the same compound, the myostatin expression (myostatin and MyoD) was “decreased again” and the grip strength [3] was “increased again”.
For dulaglutide [Trulicity], the grip strength [4] was “improved to a significant level”, the grip strength ([4]; listed as dulaglutide) was “enhanced” and the “muscle mass of EDL (Extensor digitorum longus) and QD (Quadratus)” value ([5]; B to F of FIG. 12) was “statistical significance was confirmed by an increase in muscle mass”. The “muscle mass of TA (Tibialis anterior), Sol (Soleus), and GA (Gastrocnemius)” value ([5]; B to F of FIG. 12) was “tendency of increasing muscle mass”, the total muscle mass [5] was “significantly increased compared to the Dex-vehicle group” and the total muscle mass ([5]; listed as dulaglutide) was “muscle mass was increased”.
In the case of exendin-4, the grip strength [6] is reported as “remarkably higher level of grip strength than the muscle atrophy-induced mice; also recorded: reduced grip strength was restored”, the body weight [7] is reported as “increase in the body weight was observed; also recorded: reduced body weight was restored” and the “expression levels of muscle atrophy-related genes (myostatin, atrogin-1, and MuRF1)” value [8] is reported as “remarkably decreased expression levels”. For the same compound, the “skeletal muscle mass (all kinds of skeletal muscles)” value [9] was “increased muscle mass similar to that of the control or comparative group; also recorded: reduced skeletal muscle mass was restored”, the “relative expression levels of muscle protein-destroying genes (myostatin, atrogin-1, and MuRF1)” value [10] was “lowest relative expression levels; also recorded: decreased” and the “relative expression levels of muscle protein-producing genes (MyoD and myogenin)” value [10] was “highest relative expression levels; also recorded: increased”.
